Reference: the supplement of paper PMC4858399
Counter-ions that a name gives are not always drawn.

What was measured:
Details in all cases: exposure time 48 h
[1] = system: Caenorhabditis elegans N2; experiment: mean nematode size ln(EXT) after 48 h, plate-adjusted (DMSO control set to 6) (ln(EXT), control-adjusted); higher = larger nematodes / less growth inhibition
Procedure, shortened: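 Synchronised C. elegans N2 L1 larvae were grown for 48 h at 20°C in K-medium containing killed OP50, 1% DMSO and 0.5–200 µM chemical, at 50 per well and 4–6 wells per treatment. The Biosort recorded extinction for each worm, and a growth model removed debris. Worm size was obtained by natural-logging these values and averaging them per well. For plate adjustment, the vehicle control mean was subtracted and 6 was added.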

[2] = system: Caenorhabditis elegans N2; experiment: lowest effective concentration for larval growth inhibition (size below effect threshold); higher = less potent
Procedure, shortened: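 Worm size was taken as per-worm extinction on the Biosort, log-transformed and turned into well means. The larvae (C. elegans N2, L1 stage, 50 per 96-well) had spent 48 h at 20°C in K-medium with killed bacteria, 1% DMSO and 0.5, 1, 5, 10, 50, 100 or 200 µM chemical. The lowest effective concentration marks the first dose where the plate-adjusted mean size drops under a cutoff and remains under it at every higher dose; the cutoff is 5.665.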

[3] = system: Caenorhabditis elegans N2; experiment: AC50 for larval growth inhibition (Hill fit); higher = less potent
Procedure, shortened: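 AC50 values come from a constrained Hill fit by weighted genetic-algorithm regression and are censored when out of range. The fit used only wells with at least 10 worms. Each well of a 96-well plate held 50 synchronised C. elegans N2 L1 larvae in K-medium with killed OP50, 1% DMSO and 0.5–200 µM chemical for 48 h at 20°C. A COPAS Biosort recorded each worm's size as extinction, which was log-transformed and averaged per well.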

Structure (SMILES) | mean nematode size ln(EXT) (ln) ([1]; 0.5 µM) | mean nematode size ln(EXT) (ln) ([1]; 1 µM) | mean nematode size ln(EXT) (ln) ([1]; 5 µM) | mean nematode size ln(EXT) (ln) ([1]; 10 µM) | mean nematode size ln(EXT) (ln) ([1]; 50 µM) | mean nematode size ln(EXT) (ln) ([1]; 100 µM) | mean nematode size ln(EXT) (ln) ([1]; 200 µM) | lowest effective concentration [2] | AC50 for larval growth inhibition [3]
Cc1cc(N=Nc2ccccc2C)ccc1N [Fast Garnet GBC base] | 5.83 | 5.71 | 5.55 | 5.5 | 3.45 | 3.57 | 3.77 | 5 µM | 14.9 µM
O=C(O)C(F)(F)C(F)(F)C(F)(F)C(F)(F)C(F)(F)C(F)(F)C(F)(F)F [Pentadecafluorooctanoic acid ammonium salt] | 5.88 | 5.86 | 5.85 | 5.84 | 5.83 | 5.68 | 5.43 | 200 µM | > 200 µM
O=C(O)c1ccccc1-n1cc(C(=O)O)c(=O)c2cc(Nc3c(F)cc(F)cc3Cl)c(Cl)cc21 | 5.87 | 5.89 | 5.95 | 5.9 | 5.94 | 5.85 | 5.63 | 200 µM | > 200 µM
Clc1nc(Cl)c(Cl)c(Cl)c1Cl [Pentachloropyridine] | 5.87 | 5.81 | 5.83 | 5.82 | 5.6 | 5.48 | 5.59 | 50 µM | > 200 µM
Nc1ccc2c(c1)C(=O)c1ccccc1C2=O [2-Aminoanthraquinone] | 6.17 | 5.82 | 5.77 | 5.81 | 5.75 | 4.42 | 5.14 | 100 µM | 53.9 µM
O=C(O)COc1nc(Cl)c(Cl)cc1Cl [Triclopyr] | 6.07 | 6.1 | 6.13 | 6.08 | 5.61 | 5.48 | 4.06 | 50 µM | 156 µM
CC(C)c1cccc(C(C)C)c1N1C(=O)c2ccc(O)cc2C1=O [5HPP-33] | 5.78 | 5.75 | 5.75 | 5.76 | 5.62 | 4.88 | 4.78 | 50 µM | 58.6 µM
CCCCCCCCCCCCCCCCO [1-Hexadecanol] | 5.89 | 5.83 | 5.86 | 5.79 | 5.68 | 5.79 | 5.64 | 200 µM | > 200 µM
CN1CCN(Cc2cc(-c3ccc4[nH]c(=O)oc4c3)co2)[C@@H](c2ccc(F)cc2)C1 | 5.7 | 5.65 | 5.75 | 5.61 | 5.3 | 4.92 | 3.58 | 10 µM | 114 µM
CC(C)N1C(=O)c2ccccc2NS1(=O)=O [Bentazone] | 6.05 | 5.93 | 5.96 | 6 | 6.01 | 6.05 | 5.55 | 200 µM | > 200 µM
O=C(Nc1ccc(Cl)cc1)Nc1ccc(Cl)c(Cl)c1 [3,4,4'-Trichlorocarbanilide] | 5.51 | 4.97 | 4.28 | 4.21 | 4.26 | 4.1 | 3.81 | ≤ 0.5 µM | 0.964 µM
CCCCCCCC(=O)OC [Methyl octanoate] | 5.88 | 5.84 | 5.85 | 5.9 | 5.74 | 5.88 | 5.52 | 200 µM | > 200 µM
c1ccc2cc3ccccc3cc2c1 [Anthracene] | 5.97 | 5.76 | 4.34 | 3.78 | 4.06 | 4.36 | 4.12 | 5 µM | 2.12 µM
